These results are taken from US20060159639A1, “Pseudo body odor composition and perfume composition for inhibiting body odor” (priority 2003, published 2006).

A short description of the assay: Suppression test of Experimental Example 1: masking and harmonizing effect in a cup, four expert panelists.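 For harmonizing: score 1 means in harmony 0 indefinite and −1 not in harmony.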 How it is done: In the present invention, the selection of the above component (I), component (II) and component (III) was carried out as follows. That is, one of the pseudo body odor compositions mentioned above and a target fragrance component were mixed and left at room temperature for 30 minutes. Thereafter, evaluations of the masking and harmonizing effects to the acid odor were carried out by four expert panelists.
After 30 minutes, a hole of about 1 cm in diameter was formed in the aluminum foil and the investigations of masking effect and the harmonizing effect were carried out according to following evaluation criteria by four expert panelists.
3: Excellent in the masking.
2: Substantially excellent in the masking.
1: Slightly sensible of the body odor (sweat odor and armpit odor).
0: Sensible of the body odor (sweat odor and armpit odor) (insufficient in the masking)

[1] abbreviates: 200 μl pseudo body odor composition of Example 4 and 10 μl perfume on filter papers in sealed about 500 ml cup, after 30 minutes, four expert panelists, scale 0-3.
[2] abbreviates: 200 μl pseudo body odor composition of Example 4 and 10 μl perfume on filter papers in sealed about 500 ml cup, after 30 minutes, four expert panelists, scale −1 to 1.

Like-named read-outs stand apart in the source and are kept apart here.

The compound `CC1CC(C)(c2ccccc2)OC(C)O1` (stereo not shown) [Floropal, 2,4,6-trimethyl-4-phenyl-1,3-dioxane] displayed a Masking under setting [1] of 1. This compound yielded a Harmonizing under setting [2] of 0.
Regarding `CCOC(=O)C12CCCC1C1CCC2C1` (stereo not shown) [Fluitate, ethyl tricyclo[5.2.1.0^2,6]decan-2-yl carboxylate], under setting [1], the Masking was 1.5 points. Under setting [2], this compound had a Harmonizing of −1.
The corresponding values for `CCOC(=O)CC1(C)OCCO1` [Fraistone, ethyl (2-methyl-[1,3]dioxolane-2-yl) acetate] are 1 and −1.
`CC(=O)OC/C=C(\C)CCC=C(C)C` [Geranyl acetate] returned a Masking under setting [1] of 1. The Harmonizing under setting [2] is listed as −1.
The corresponding values for `CC(C)=CCCC(C)=CC#N` [Geranyl nitrile] are 3 and 1.
The corresponding values for `CC(C=O)Cc1ccc2c(c1)OCO2` (stereo not drawn) [Helional, α-methyl-3,4-methylene dioxyhydrocinnamic aldehyde] are 1 and 0.
As for `O=Cc1ccc2c(c1)OCO2` [Heliotropine], the Masking under setting [1] was found to be 1.5 points. The compound further came in with a Harmonizing under setting [2] of 0.
The corresponding values for `CCCCCC=O` [Hexanal] are 3 and 1.
Turning to `CCCCCCOC(=O)c1ccccc1O` [Hexyl salicylate], under setting [1], the Masking is reported as 1. The compound also came in with a Harmonizing under setting [2] of −1.
The corresponding values for `CC(C)=CCCC1=CCC(C)(C=O)CC1` (stereo not shown) [Homomyracaldehyde, 1-methyl-4-(4-methyl-3-pentenyl)-3-cyclohexen carboxy aldehyde] are 1 and −1.
For `CC(CC=O)CCCC(C)(C)O` (stereo not shown) [Hydroxycitronellal], in that order: 1 and 0.
For `c1ccc2[nH]ccc2c1` [Indole], in that order: 1.5 points and −1.
Turning to `CC(=O)C1(C)CC2=C(CCCC2(C)C)CC1C` (stereo not shown) [Iso E super, 7-acetyl-1,2,3,4,5,6,7,8-octahydro-1,1,6,7-tetramethyl naphthalene], under setting [1], the Masking is given as 1. Also, under setting [2], the Harmonizing is given as −1.
The corresponding values for `CC(C)Cc1ccc2ncccc2c1` [Isobutyl quinoline] are 2 and 1.
For `CC1=CC(C)C(C=O)C(C)C1` (stereo not shown) [Isocyclocitral, trimethyl cyclohexene carbalehyde], in that order: 2.5 points and 1.
`CCCCCC1COCCC1OC(C)=O` (stereo not shown) [Jasmal, 3-pentyl tetrahydropyranyl acetate] registered a Masking under setting [1] of 1. The Harmonizing under setting [2] was −1.
Compound `CC(=O)C(C)=C(C)C(C)C(C)(C)C` (stereo not shown) [Koavone, ethylene tetramethyl heptanone] registered a Harmonizing of 1 and a Masking of 2.5 points.
For `CC(C)(O)CCCC1=CCC(C=O)CC1` (stereo not shown) [Kovanol, 4(3)-(4-hydroxy-4-methylpentyl)-3-cyclohexene-1-carboxy aldehyde], under setting [1], the Masking is recorded as 1. The Harmonizing under setting [2] was 0.
Consider `CC(C)=C[C@@H]1C[C@H](C)CCO1` [L-Rose oxide], for which the Masking under setting [1] was 3. In addition, the Harmonizing under setting [2] came to 1.
For `CCC(=CCC1CC=C(C)C1(C)C)CO` (stereo not shown) [Levosandol, 2-ethyl-4-(2,2,3-trimethyl-3-cyclopentene-1-yl)-2-butene-1-ol], in that order: 2.5 points and 1.
As for `CC(C=O)Cc1ccc(C(C)(C)C)cc1` (stereo not drawn) [Lilial, p-tert-butyl-α-methyl hydrocinnamic aldehyde], the Harmonizing under setting [2] was 0.
Consider `C=CC(C)(O)CCC=C(C)C` (stereo not shown) [Linalool], for which the Masking under setting [1] is on record as 1. This compound gave a Harmonizing under setting [2] of 0.
As for `C=CC(C)(CCC=C(C)C)OC(C)=O` (stereo not shown) [Linalyl acetate], the Masking under setting [1] was 1. The compound further registered a Harmonizing under setting [2] of −1.
For `CC(C)[C@@H]1CC[C@@H](C)CC1=O` [Mentone], in that order: 3 and 1.
The corresponding values for `COC(=O)c1ccccc1N` [Methyl anthranilate] are 2.5 points and 1.
For `COC(=O)c1ccccc1` [Methyl benzoate], in that order: 3 and 1.
Take `CCCCCC1C(=O)CCC1CC(=O)OC` (stereo not shown) [Methyl dihydrojasmonate]: under setting [1], the Masking is reported as 2. This compound showed a Harmonizing under setting [2] of 1.
For `CC(=O)CCC=C(C)C` [Methyl heptenone], in that order: 3 and 1.
For `COC(=O)Cc1ccccc1` [Methyl phenyl acetate], in that order: 2.5 points and 1.
The corresponding values for `O=C1CCCCCCCCCCCC(=O)OCCO1` [Musk T, ethylene brassylate] are 0.5 points and −1.
Under setting [1], `CC(C)[C@H]1CC[C@@H](CO)CC1` [Myol, cis-p-isopropylcyclohexyl methanol] showed a Masking of 1. Also, the Harmonizing under setting [2] was −1.
`CC(C)=CCCC1=CCC(C=O)CC1` (stereo not shown) [Myracaldehyde, 4-(4-methyl-3-pentenyl)-3-cyclohexene-1-carbaldehyde] yielded a Masking under setting [1] of 1.5 points. Also, under setting [2], the Harmonizing is 0.
The corresponding values for `CCCCCCCCC=O` [Nonanal] are 1.5 points and −1.
For `CCCCCCCC=O` [Octanal], in that order: 3 and 1.
The corresponding values for `O=C1CCCCCCCCOCCCCCCO1` [Oxalide, 10-oxa-16-hexadecanolide] are 0 and −1.
For `O=CCc1ccccc1` [Phenyl acetoaldehyde], under setting [1], the Masking is listed as 3. Under setting [2], this compound came in with a Harmonizing of 1.
The corresponding values for `COC(Cc1ccccc1)OC` [Phenylactoaldehyde dimethylacetal] are 2 and 1.
The corresponding values for `CC(=O)OCCc1ccccc1` [Phenylethyl acetate] are 2.5 points and 1.
In the case of `OCCc1ccccc1` [Phenylethyl alcohol], the Masking under setting [1] was 2.5 points. For the same compound, the Harmonizing under setting [2] came out at 1.
For `O=C(Cc1ccccc1)OCCc1ccccc1` [Phenylethyl phenyl acetate], in that order: 2 and 0.
For `O=C(OCCc1ccccc1)c1ccccc1O` [Phenylethyl salicylate], in that order: 1 and −1.
The corresponding values for `CC(=O)CCc1ccc(O)cc1` [Raspberry ketone, 4-(4-hydroxyphenyl)-2-butanone] are 0.5 points and −1.
On to `CC(C)=CC1CC(C)CCO1` (stereo not shown) [Rose oxide], for which the Masking under setting [1] worked out at 3. For the same compound, the Harmonizing under setting [2] is on record as 1.
With `CC(=O)OC(c1ccccc1)C(Cl)(Cl)Cl` (stereo not shown) [Rosephenone, trichloromethyl phenyl carbinyl acetate], under setting [1], the Masking worked out at 1.5 points. Under setting [2], the Harmonizing was 0.
For `CC(=CCC1CC=C(C)C1(C)C)CO` (stereo not shown) [Sandalmysore core, 2-methyl-4-(2,2,3-trimethyl-3-cyclopentene-1-yl)-2-butene-1-ol], in that order: 2.5 points and 1.
Compound `CC(=O)OC(C)c1ccccc1` (stereo not shown) [Styralyl acetate] returned a Masking under setting [1] of 3. Moreover, the Harmonizing under setting [2] came to 1.
Under setting [1], `CC(=O)OC(C)(C)C1CC=C(C)CC1` (stereo not shown) [Terpinyl acetate] came in with a Masking of 2. This compound showed a Harmonizing under setting [2] of 0.
The corresponding values for `CCC(C)CCCC(C)(C)O` (stereo not shown) [Tetrahydromyrcenol] are 2 and 0.
In turn, `CCOC(=O)C1C(C)CCCC1(C)C` (stereo not shown) [Thesaron, ethyl 2,2,6-trimethylcyclohexane carboxylate] yielded a Masking under setting [1] of 2. The same compound came in with a Harmonizing under setting [2] of 0.
For `Cc1ccc(C(C)C)c(O)c1` [Thymol], in that order: 1 and −1.
For `CC(=O)OC1CC2CC1C1CC=CC21` (stereo not shown) [Tricyclodecenyl acetate], in that order: 1.5 points and 0.
The corresponding values for `CCCCCCCCCCC=CC#N` [Tridecene-2-nitrile] are 1.5 points and 0.
Regarding `CC1=CC(C)C(C=O)CC1` (stereo not shown) [Tripral, Dimethyl tetrahydrobenzaldehyde], the Masking under setting [1] is 3. Under setting [2], the Harmonizing was 1.
For `CC(=O)C1=C(C)[C@@H]2C[C@@]3(C1)[C@H](C)CC[C@H]3C2(C)C` [Woodyflor, acetylcedrene], in that order: 1.5 points and −1.
For `CC/C=C\CCOC(C)=O` [cis-3-Hexenyl acetate], in that order: 3 and 1.
The corresponding values for `CC/C=C\CCOC(=O)c1ccccc1O` [cis-3-Hexenyl salicylate] are 2 and 1.
For the compound `CC/C=C\CC1=C(C)CCC1=O` [cis-Jasmone], the Masking under setting [1] is recorded as 1. This compound also showed a Harmonizing under setting [2] of −1.
The corresponding values for `CC(C)[C@@H]1CC[C@@H](C)C[C@H]1O` [l-Menthol] are 1 and −1.
